Experimental data: patent US20210007356A1, “IMIDE DERIVATIVE AND FUNGICIDE CONTAINING SAID DERIVATIVE AS ACTIVE INGREDIENT” (HOKKO CHEMICAL INDUSTRY CO., LTD., priority 2018, published 2021)
Where two headings read alike, the source gives them in different places.

Legend:
[1] = tested on: rice blast fungus (Pyricularia grisea); type: in vivo; conditions: flowable 1,000 ppm, 1 mL dripped in paddy water, inoculated after 1 week, 7 days after inoculation
[2] = tested on: rice blast fungus (Pyricularia grisea); type: in vivo; conditions: flowable 5,000 ppm, 50 mL irrigation of nursery box, paddy rice; inoculated after 3 weeks; 7 days after inoculation
[3] = tested on: rice blast fungus (Pyricularia grisea); type: in vivo; conditions: flowable diluted to 100 ppm, 10 mL per pot foliage spray on paddy rice; inoculated day after; 7 days after inoculation
[4] = tested on: barley powdery mildew fungus (Erysiphe graminis); test: Test Example 2: control effect against barley powdery mildew by foliage application; type: in vivo; conditions: wettable powder diluted to 100 ppm, 10 mL per pot foliage spray on barley; inoculated day after; 7 days after inoculation
[5] = tested on: rice blast fungus (Pyricularia grisea); type: in vivo; conditions: 5 g of granule on nursery box, paddy rice; inoculated after 3 weeks; 7 days after inoculation
[6] = tested on: rice sheath blight fungus (Thanatephorus cucumeris); test: Test Example 10: control effect against rice sheath blight by water surface application (flowable formulation); conditions: flowable 1,000 ppm, 1 mL dripped in paddy water, inoculated after 1 week, 7 days after inoculation
Protocol: Control value (%)=[1−(lesion height in sprayed plot/lesion height in unsprayed plot)]×100 (d)
By dripping treatment in paddy water, 1 mL of a diluted solution (1,000 ppm) of a flowable prepared according to Formulation Example-3 was applied to a 5-leaf-stage paddy rice (variety: Asahi) seedling (5 seedlings/stub, one stub/pot) grown in a pot ( 1/10000 are in size) filled with paddy soil (flooded) within a greenhouse. After growing for 1 week within a greenhouse, a culture of rice sheath blight fungus (Thanatephorus cucumeris) grown in advance on a rice straw medium was inoculated into the root of the formulation-treated paddy rice, and disease development was promoted in an artificial weather chamber at 26° C. (relative humidity=100%). Seven days after the inoculation, the rice sheath blight lesion height (height from the root) was examined, and the control value (%) was calculated according to formula (d). […] This test was performed with three replications, each consisting of one plot and one pot, per one formulation plot, and its average evaluation value of control effect was determined.

[7] = tested on: rice sheath blight fungus (Thanatephorus cucumeris); test: Test Example 8: control effect against rice sheath blight by box treatment (granule); conditions: 5 g of granule on nursery box, paddy rice; inoculated after 3 weeks; 7 days after inoculation
[8] = tested on: rice sheath blight fungus (Thanatephorus cucumeris); test: Test Example 6: control effect against rice sheath blight by box treatment (flowable formulation); conditions: flowable 5,000 ppm, 50 mL irrigation of nursery box, paddy rice; inoculated after 3 weeks; 7 days after inoculation

Cn1cc(C(=O)N(C(=O)c2snc(Cl)c2Cl)c2ccccc2C2CC2C2CC2)c(C(F)F)n1 (stereo not shown) [1-29]
evaluation value of control effect (from control value, number of lesions) [1]: 5
evaluation value of control effect (from control value, number of lesions) [2]: 5
evaluation value of control effect (from control value, number of lesions) [3]: 4
evaluation value of control effect (from control value, lesion area percentage) [4]: 4
evaluation value of control effect (from control value, number of lesions) [5]: 5
evaluation value of control effect (from control value, lesion height) [6]: 5
evaluation value of control effect (from control value, lesion height) [7]: 5
evaluation value of control effect (from control value, lesion height) [8]: 5

CC(C)CC(C)c1ccccc1N(C(=O)c1cn(C)nc1C(F)F)C(=O)c1snc(Cl)c1Cl (stereo not shown) [1-35]
evaluation value of control effect (from control value, number of lesions) [1]: 5
evaluation value of control effect (from control value, number of lesions) [2]: 5
evaluation value of control effect (from control value, number of lesions) [3]: 4
evaluation value of control effect (from control value, lesion area percentage) [4]: 5
evaluation value of control effect (from control value, number of lesions) [5]: 5
evaluation value of control effect (from control value, lesion height) [6]: 5
evaluation value of control effect (from control value, lesion height) [7]: 5
evaluation value of control effect (from control value, lesion height) [8]: 5

Cc1nnsc1C(=O)N(C(=O)c1cn(C)nc1C(F)F)c1ccccc1C(C)CC(C)C (stereo not shown) [1-146, N-{3-(Difluoromethyl)-1-methylpyrazole-4-carbonyl}-N-{2-(1,3-dimethylbutyl)phenyl}-4-methylthiadiazole-5-carboxamide]
evaluation value of control effect (from control value, number of lesions) [1]: 5
evaluation value of control effect (from control value, number of lesions) [2]: 5
evaluation value of control effect (from control value, number of lesions) [3]: 4
evaluation value of control effect (from control value, lesion area percentage) [4]: 4
evaluation value of control effect (from control value, number of lesions) [5]: 5
evaluation value of control effect (from control value, lesion height) [6]: 5
evaluation value of control effect (from control value, lesion height) [7]: 5
evaluation value of control effect (from control value, lesion height) [8]: 5

CC(C)CC(C)c1ccccc1N(C(=O)c1cn(C)nc1C(F)F)C(=O)c1snnc1C(F)F (stereo not shown) [1-237]
evaluation value of control effect (from control value, number of lesions) [1]: 5
evaluation value of control effect (from control value, number of lesions) [2]: 5
evaluation value of control effect (from control value, number of lesions) [3]: 4
evaluation value of control effect (from control value, lesion area percentage) [4]: 5
evaluation value of control effect (from control value, number of lesions) [5]: 5
evaluation value of control effect (from control value, lesion height) [6]: 5
evaluation value of control effect (from control value, lesion height) [7]: 5
evaluation value of control effect (from control value, lesion height) [8]: 5

Cc1nc(C(F)F)c(C(=O)N(C(=O)c2cn(C)nc2C(F)F)c2ccccc2CCC(C)C)s1 [1-313]
evaluation value of control effect (from control value, number of lesions) [1]: 5
evaluation value of control effect (from control value, number of lesions) [2]: 5
evaluation value of control effect (from control value, number of lesions) [3]: 4
evaluation value of control effect (from control value, lesion area percentage) [4]: 4
evaluation value of control effect (from control value, number of lesions) [5]: 5
evaluation value of control effect (from control value, lesion height) [6]: 5
evaluation value of control effect (from control value, lesion height) [7]: 5
evaluation value of control effect (from control value, lesion height) [8]: 5

Cc1nn(C)c(F)c1C(=O)N(C(=O)c1scnc1C(F)F)c1ccccc1C(C)CC(C)C (stereo not shown) [1-346]
evaluation value of control effect (from control value, number of lesions) [1]: 5
evaluation value of control effect (from control value, number of lesions) [2]: 5
evaluation value of control effect (from control value, number of lesions) [3]: 4
evaluation value of control effect (from control value, lesion area percentage) [4]: 4
evaluation value of control effect (from control value, number of lesions) [5]: 5

Cn1cc(C(=O)N(C(=O)c2scnc2C(F)F)c2ccccc2-c2cc(F)c(F)c(F)c2)c(C(F)F)n1 [1-370]
evaluation value of control effect (from control value, number of lesions) [1]: 5
evaluation value of control effect (from control value, number of lesions) [2]: 5
evaluation value of control effect (from control value, number of lesions) [3]: 4
evaluation value of control effect (from control value, lesion area percentage) [4]: 4
evaluation value of control effect (from control value, number of lesions) [5]: 5
evaluation value of control effect (from control value, lesion height) [6]: 5
evaluation value of control effect (from control value, lesion height) [7]: 5
evaluation value of control effect (from control value, lesion height) [8]: 5

Cn1cc(C(=O)N(C(=O)c2onc(Cl)c2Cl)c2ccccc2-c2cc(F)c(F)c(F)c2)c(C(F)F)n1 [1-374]
evaluation value of control effect (from control value, number of lesions) [1]: 5
evaluation value of control effect (from control value, number of lesions) [2]: 5
evaluation value of control effect (from control value, number of lesions) [3]: 4
evaluation value of control effect (from control value, lesion area percentage) [4]: 4
evaluation value of control effect (from control value, number of lesions) [5]: 5
evaluation value of control effect (from control value, lesion height) [6]: 5
evaluation value of control effect (from control value, lesion height) [7]: 5
evaluation value of control effect (from control value, lesion height) [8]: 5

Cc1nn(C)c(F)c1C(=O)N(C(=O)c1cc(Cl)no1)c1ccccc1C(C)CC(C)C (stereo not shown) [1-376]
evaluation value of control effect (from control value, number of lesions) [1]: 5
evaluation value of control effect (from control value, number of lesions) [2]: 5
evaluation value of control effect (from control value, number of lesions) [3]: 4
evaluation value of control effect (from control value, lesion area percentage) [4]: 4
evaluation value of control effect (from control value, number of lesions) [5]: 5
evaluation value of control effect (from control value, lesion height) [6]: 5
evaluation value of control effect (from control value, lesion height) [7]: 5
evaluation value of control effect (from control value, lesion height) [8]: 5

Cc1nn(C)c(C)c1C(=O)N(C(=O)c1snc(Cl)c1Cl)c1ccccc1C(C)CC(C)C (stereo not shown) [1-377]
evaluation value of control effect (from control value, number of lesions) [1]: 5
evaluation value of control effect (from control value, number of lesions) [2]: 5
evaluation value of control effect (from control value, number of lesions) [3]: 4
evaluation value of control effect (from control value, lesion area percentage) [4]: 4
evaluation value of control effect (from control value, number of lesions) [5]: 5

CC(C)CC(C)c1ccccc1N(C(=O)c1snc(Cl)c1Cl)C(=O)c1c(C(F)F)nn(C)c1Cl (stereo not shown) [1-379]
evaluation value of control effect (from control value, number of lesions) [1]: 5
evaluation value of control effect (from control value, number of lesions) [2]: 5
evaluation value of control effect (from control value, number of lesions) [3]: 4
evaluation value of control effect (from control value, lesion area percentage) [4]: 4
evaluation value of control effect (from control value, number of lesions) [5]: 5

CC(C)CC(C)c1sccc1N(C(=O)c1cn(C)nc1C(F)F)C(=O)c1snc(Cl)c1Cl (stereo not shown) [5-5]
evaluation value of control effect (from control value, number of lesions) [1]: 5
evaluation value of control effect (from control value, number of lesions) [2]: 5
evaluation value of control effect (from control value, number of lesions) [3]: 4
evaluation value of control effect (from control value, lesion area percentage) [4]: 5
evaluation value of control effect (from control value, number of lesions) [5]: 5
evaluation value of control effect (from control value, lesion height) [6]: 5
evaluation value of control effect (from control value, lesion height) [7]: 5
evaluation value of control effect (from control value, lesion height) [8]: 5

Cc1nnsc1C(=O)N(C(=O)c1cn(C)nc1C(F)(F)F)c1ccsc1C(C)CC(C)C (stereo not shown) [5-19]
evaluation value of control effect (from control value, number of lesions) [1]: 5
evaluation value of control effect (from control value, number of lesions) [2]: 5
evaluation value of control effect (from control value, number of lesions) [3]: 4
evaluation value of control effect (from control value, lesion area percentage) [4]: 5
evaluation value of control effect (from control value, number of lesions) [5]: 5

Cc1nnsc1C(=O)N(C(=O)c1cn(C)nc1C(F)F)c1ccsc1C(C)CC(C)C (stereo not shown) [5-23]
evaluation value of control effect (from control value, number of lesions) [1]: 5
evaluation value of control effect (from control value, number of lesions) [2]: 5
evaluation value of control effect (from control value, number of lesions) [3]: 4
evaluation value of control effect (from control value, lesion area percentage) [4]: 5
evaluation value of control effect (from control value, number of lesions) [5]: 5
evaluation value of control effect (from control value, lesion height) [6]: 5
evaluation value of control effect (from control value, lesion height) [7]: 5
evaluation value of control effect (from control value, lesion height) [8]: 5

CC(C)CC(C)c1ccccc1N(C(=O)c1cc(Cl)c(Cl)s1)C(=O)c1cccnc1C(F)F (stereo not shown) [13-50]
evaluation value of control effect (from control value, number of lesions) [1]: 5
evaluation value of control effect (from control value, number of lesions) [2]: 5
evaluation value of control effect (from control value, number of lesions) [3]: 4
evaluation value of control effect (from control value, lesion area percentage) [4]: 4
evaluation value of control effect (from control value, number of lesions) [5]: 5

CC(C)CC(C)c1ccccc1N(C(=O)c1cccnc1CF)C(=O)c1snc(Cl)c1Cl (stereo not shown) [13-56]
evaluation value of control effect (from control value, number of lesions) [1]: 5
evaluation value of control effect (from control value, number of lesions) [2]: 5
evaluation value of control effect (from control value, number of lesions) [3]: 4
evaluation value of control effect (from control value, lesion area percentage) [4]: 4
evaluation value of control effect (from control value, number of lesions) [5]: 5

CC(C)CC(C)c1ccccc1N(C(=O)c1ccccc1C(F)F)C(=O)c1snc(Cl)c1Cl (stereo not shown) [19-2]
evaluation value of control effect (from control value, number of lesions) [1]: 5
evaluation value of control effect (from control value, number of lesions) [2]: 5
evaluation value of control effect (from control value, number of lesions) [3]: 4
evaluation value of control effect (from control value, lesion area percentage) [4]: 4
evaluation value of control effect (from control value, number of lesions) [5]: 5

Cc1nc(C(F)F)c(C(=O)N(C(=O)c2snnc2C)c2cccc3c2C(C)CC3(C)C)s1 (stereo not shown) [26-49]
evaluation value of control effect (from control value, number of lesions) [1]: 5
evaluation value of control effect (from control value, number of lesions) [2]: 5
evaluation value of control effect (from control value, number of lesions) [3]: 4
evaluation value of control effect (from control value, lesion area percentage) [4]: 4
evaluation value of control effect (from control value, number of lesions) [5]: 5

CC1OC(C)(C)c2cccc(N(C(=O)c3ccccc3C(F)F)C(=O)c3snc(Cl)c3Cl)c21 (stereo not shown) [28-4]
evaluation value of control effect (from control value, number of lesions) [1]: 5
evaluation value of control effect (from control value, number of lesions) [2]: 5
evaluation value of control effect (from control value, number of lesions) [3]: 4
evaluation value of control effect (from control value, number of lesions) [5]: 5
evaluation value of control effect (from control value, lesion height) [6]: 5
evaluation value of control effect (from control value, lesion height) [7]: 5
evaluation value of control effect (from control value, lesion height) [8]: 5
